Experimental data: US20070128217A1 (priority 2003, published 2007)

How the values were obtained:
[1] = test system: antibodies in sera from SARS patients (sera 1a, 1b, 2, 6, 37, 62, London, SARS-yellow, SARS-green); type: binding, human; parameters: Binding of serum 6 to linear peptides of protein X1 of SARS-CoV Urbani / Binding of serum 37 to linear peptides of protein X1 of SARS-CoV Urbani / Binding of serum 6 to looped/cyclic peptide (PEPSCAN-ELISA) / Binding of serum 37 to looped/cyclic peptide (PEPSCAN-ELISA) / Binding of serum 37 to looped/cyclic peptides of protein X1 of SARS-CoV Urbani / Binding of serum 6 to linear peptides of protein X2 / Binding of serum 37 to linear peptides of protein X2 / Binding of serum 37 to looped/cyclic peptides of protein X2 of SARS-CoV Urbani / Binding of serum 6 to linear peptides of protein M of SARS-CoV Urbani / Binding of serum 37 to linear peptides of protein M of SARS-CoV Urbani / Binding of serum 6 to looped/cyclic peptides of protein M of SARS-CoV Urbani / Binding of serum 37 to looped/cyclic peptides of protein M of SARS-CoV Urbani / Binding of serum 6 to linear peptides of protein X3 of SARS-CoV Urbani / Binding of serum 37 to linear peptides of protein X3 of SARS-CoV Urbani / Binding of serum 37 to looped/cyclic peptides of protein X3 of SARS-CoV Urbani / Binding of serum 6 to linear peptides of protein X4 of SARS-CoV Urbani / Binding of serum 37 to linear peptides of protein X4 of SARS-CoV Urbani / Binding of serum 37 to looped/cyclic peptides of protein X4 of SARS-CoV Urbani / Binding of serum 6 to linear peptides of protein X5 of SARS-CoV Urbani / Binding of serum 37 to linear peptides of protein X5 of SARS-CoV Urbani / Binding of serum 37 to looped/cyclic peptides of protein X5 of SARS-CoV Urbani / Binding of serum 6 to linear peptides of protein N of SARS-CoV Urbani / Binding of serum 37 to linear peptides of protein N of SARS-CoV Urbani / Binding of serum 6 to linear peptide (PEPSCAN-ELISA) / Binding of serum 1a to looped/cyclic peptides of protein N of SARS-CoV Urbani / Binding of serum 1b to looped/cyclic peptides of protein N of SARS-CoV Urbani / Binding of serum 2 to looped/cyclic peptides of protein N of SARS-CoV Urbani / Binding of serum 6 to looped/cyclic peptides of protein N of SARS-CoV Urbani / Binding of serum 37 to looped/cyclic peptides of protein N of SARS-CoV Urbani / Binding of serum 62 to looped/cyclic peptides of protein N of SARS-CoV Urbani / Binding of serum London to looped/cyclic peptides of protein N of SARS-CoV Urbani / Binding of serum SARS-green to looped/cyclic peptides of protein N of SARS-CoV Urbani: unit not given here
[2] = test system: rabbit serum obtained by immunizing a rabbit with the SARS-CoV strain Frankfurt 1; type: binding; parameters: Binding of a rabbit serum to linear peptides / Binding of a rabbit serum to looped peptides / Rabbit serum linear peptides / Rabbit serum looped peptides / Binding of a rabbit serum to linear peptides of protein N of SARS-CoV Urbani (Rabbit serum linear peptides) / Binding of a rabbit serum to looped/cyclic peptides of protein N of SARS-CoV Urbani (Rabbit serum looped peptides): unit not given here
[3] = test system: control sera (pooled serum of ten healthy LUMC hospital workers; commercial negative donor pooled serum from the Dutch bloodbank); type: binding, human; parameters: Binding of Control serum LUMC to linear peptides / Binding of Control serum Blood-bank to linear peptides / Binding of Control serum LUMC to looped peptides / Binding of Control Serum Blood-Bank to Looped peptides / Binding of Control serum LUMC to linear peptides of the protein M of SARS-CoV Urbani / Binding of Control serum Blood-bank to linear peptides of the protein M of SARS-CoV Urbani / Binding of Control serum LUMC to looped peptides of the protein M of SARS-CoV Urbani / Binding of Control Serum Blood-Bank to Looped peptides of the protein M of SARS-CoV Urbani: unit not given here

Sequence: RSMWSFNPETNILLN
- Binding of serum 1a to linear peptides of protein M of SARS-CoV Urbani [1]: 0.8
- Binding of serum 1a to looped/cyclic peptides of protein M of SARS-CoV Urbani [1]: 0.8
- Binding of serum 1b to linear peptides of protein M of SARS-CoV Urbani [1]: 0.6
- Binding of serum 1b to looped/cyclic peptides of protein M of SARS-CoV Urbani [1]: 0.4
- Binding of serum 2 to linear peptides of protein M of SARS-CoV Urbani [1]: 0.6
- Binding of serum 2 to looped/cyclic peptides of protein M of SARS-CoV Urbani [1]: 0.8
- Binding of serum 6 to linear peptides of protein M of SARS-CoV Urbani [1]: 0.3
- Binding of serum 6 to looped/cyclic peptides of protein M of SARS-CoV Urbani [1]: 0.7
- Binding of serum 37 to linear peptides of protein M of SARS-CoV Urbani [1]: 0.8
- Binding of serum 37 to looped/cyclic peptides of protein M of SARS-CoV Urbani [1]: 0.8
- Binding of serum 62 to linear peptides of protein M of SARS-CoV Urbani [1]: 0.7
- Binding of serum 62 to looped/cyclic peptides of protein M of SARS-CoV Urbani [1]: 0.8
- Binding of serum London to linear peptides of protein M of SARS-CoV Urbani [1]: 0.3
- Binding of serum London to looped/cyclic peptides of protein M of SARS-CoV Urbani [1]: 0.2
- Binding of serum SARS-green to linear peptides of protein M of SARS-CoV Urbani [1]: 0.2
- Binding of serum SARS-green to looped/cyclic peptides of protein M of SARS-CoV Urbani [1]: 0.4
- Binding of serum SARS-yellow to linear peptides of protein M of SARS-CoV Urbani [1]: 0.1
- Binding of serum SARS-yellow to looped/cyclic peptides of protein M of SARS-CoV Urbani [1]: 0.7
- Rabbit serum linear peptides [2]: 0.4
- Rabbit serum looped peptides [2]: 0.3
- Binding of Control Serum Blood-Bank to Looped peptides of the protein M of SARS-CoV Urbani [3]: 0.7
- Binding of Control serum Blood-bank to linear peptides of the protein M of SARS-CoV Urbani [3]: 0.8
- Binding of Control serum LUMC to linear peptides of the protein M of SARS-CoV Urbani [3]: 0.5
- Binding of Control serum LUMC to looped peptides of the protein M of SARS-CoV Urbani [3]: 0.7

Sequence: ILVRYNTRGNTYSTA
- Binding of serum 1a to linear peptides of protein X5 of SARS-CoV Urbani [1]: 0.7
- Binding of serum 1a to looped/cyclic peptides of protein X5 of SARS-CoV Urbani [1]: 0.5
- Binding of serum 1b to linear peptides of protein X5 of SARS-CoV Urbani [1]: 0.4
- Binding of serum 1b to looped/cyclic peptides of protein X5 of SARS-CoV Urbani [1]: 0.3
- Binding of serum 2 to linear peptides of protein X5 of SARS-CoV Urbani [1]: 0.6
- Binding of serum 2 to looped/cyclic peptides of protein X5 of SARS-CoV Urbani [1]: 0.6
- Binding of serum 6 to linear peptides of protein X5 of SARS-CoV Urbani [1]: 0.7
- Binding of serum 6 to looped/cyclic peptides of protein X5 of SARS-CoV Urbani [1]: 0.6
- Binding of serum 37 to linear peptides of protein X5 of SARS-CoV Urbani [1]: 0.6
- Binding of serum 37 to looped/cyclic peptides of protein X5 of SARS-CoV Urbani [1]: 0.4
- Binding of serum 62 to linear peptides of protein X5 of SARS-CoV Urbani [1]: 0.7
- Binding of serum 62 to looped/cyclic peptides of protein X5 of SARS-CoV Urbani [1]: 0.8
- Binding of serum London to linear peptides of protein X5 of SARS-CoV Urbani [1]: 0.6
- Binding of serum London to looped/cyclic peptides of protein X5 of SARS-CoV Urbani [1]: 0.2
- Binding of serum SARS-green to linear peptides of protein X5 of SARS-CoV Urbani [1]: 0.5
- Binding of serum SARS-green to looped/cyclic peptides of protein X5 of SARS-CoV Urbani [1]: 0.3
- Binding of serum SARS-yellow to linear peptides of protein X5 of SARS-CoV Urbani [1]: 0.2
- Binding of serum SARS-yellow to looped/cyclic peptides of protein X5 of SARS-CoV Urbani [1]: 0.8
- Rabbit serum linear peptides [2]: 0.9
- Rabbit serum looped peptides [2]: 0.8
- Binding of Control Serum Blood-Bank to Looped peptides [3]: 0.4
- Binding of Control serum Blood-bank to linear peptides [3]: 0.7
- Binding of Control serum LUMC to linear peptides [3]: 0.5
- Binding of Control serum LUMC to looped peptides [3]: 0.6

Sequence: RNRFLYIIKLVFLWL
- Binding of serum 1a to linear peptides of protein M of SARS-CoV Urbani [1]: 0.6
- Binding of serum 1b to linear peptides of protein M of SARS-CoV Urbani [1]: 0.5
- Binding of serum 2 to linear peptides of protein M of SARS-CoV Urbani [1]: 0.4
- Binding of serum 6 to linear peptides of protein M of SARS-CoV Urbani [1]: 0.5
- Binding of serum 37 to linear peptides of protein M of SARS-CoV Urbani [1]: 0.4
- Binding of serum 62 to linear peptides of protein M of SARS-CoV Urbani [1]: 0.5
- Binding of serum London to linear peptides of protein M of SARS-CoV Urbani [1]: 0.3
- Binding of serum SARS-green to linear peptides of protein M of SARS-CoV Urbani [1]: 0.4
- Binding of serum SARS-yellow to linear peptides of protein M of SARS-CoV Urbani [1]: 0.3
- Recognition of the peptide by sera of SARS-CoV infected individuals, and form (linear, looped/cyclic) in which it is recognized [1]: recognized in looped/cyclic form
- Rabbit serum linear peptides [2]: 0.4
- Rabbit serum looped peptides [2]: 0.5
- Binding of Control Serum Blood-Bank to Looped peptides of the protein M of SARS-CoV Urbani [3]: 0.7
- Binding of Control serum Blood-bank to linear peptides of the protein M of SARS-CoV Urbani [3]: 0.6
- Binding of Control serum LUMC to linear peptides of the protein M of SARS-CoV Urbani [3]: 0.7
- Binding of Control serum LUMC to looped peptides of the protein M of SARS-CoV Urbani [3]: 0.8
